Assays:
Experiment in all cases: KINOMEscan
Format in all cases: binding
FLT3(N841I) = target: T1, FLT3(N841I) (Homo sapiens, UniProt P36888, N841I); conditions: 35 at 1 µM; read-out: % inhibition
T1 construct: purchased Eurofins DiscoverX (KINOMEscan)
Method: (§1) KinomeScan Assay on 35 was performed as previously described at EuroFins DiscoverX (Fremont, CA, USA).

LIMK1 = target: T2, LIMK1 (Homo sapiens, UniProt P53667); conditions: 35 at 1 µM; read-out: % inhibition
T2 construct: purchased Eurofins DiscoverX (KINOMEscan)
Method: as §1

CLK1 = target: T3, CLK1 (Homo sapiens, UniProt P49759); conditions: 35 at 1 µM; read-out: % inhibition
T3 construct: purchased Eurofins DiscoverX (KINOMEscan)
Method: as §1

PRKCQ = target: T4, PRKCQ (Homo sapiens, UniProt Q04759); conditions: 35 at 1 µM; read-out: % inhibition
T4 construct: purchased Eurofins DiscoverX (KINOMEscan)
Method: as §1

NEK9 = target: T5, NEK9 (Homo sapiens, UniProt Q8TD19); conditions: 35 at 1 µM; read-out: % inhibition
T5 construct: purchased Eurofins DiscoverX (KINOMEscan)
T5 sequence (Q8TD19 whole entry): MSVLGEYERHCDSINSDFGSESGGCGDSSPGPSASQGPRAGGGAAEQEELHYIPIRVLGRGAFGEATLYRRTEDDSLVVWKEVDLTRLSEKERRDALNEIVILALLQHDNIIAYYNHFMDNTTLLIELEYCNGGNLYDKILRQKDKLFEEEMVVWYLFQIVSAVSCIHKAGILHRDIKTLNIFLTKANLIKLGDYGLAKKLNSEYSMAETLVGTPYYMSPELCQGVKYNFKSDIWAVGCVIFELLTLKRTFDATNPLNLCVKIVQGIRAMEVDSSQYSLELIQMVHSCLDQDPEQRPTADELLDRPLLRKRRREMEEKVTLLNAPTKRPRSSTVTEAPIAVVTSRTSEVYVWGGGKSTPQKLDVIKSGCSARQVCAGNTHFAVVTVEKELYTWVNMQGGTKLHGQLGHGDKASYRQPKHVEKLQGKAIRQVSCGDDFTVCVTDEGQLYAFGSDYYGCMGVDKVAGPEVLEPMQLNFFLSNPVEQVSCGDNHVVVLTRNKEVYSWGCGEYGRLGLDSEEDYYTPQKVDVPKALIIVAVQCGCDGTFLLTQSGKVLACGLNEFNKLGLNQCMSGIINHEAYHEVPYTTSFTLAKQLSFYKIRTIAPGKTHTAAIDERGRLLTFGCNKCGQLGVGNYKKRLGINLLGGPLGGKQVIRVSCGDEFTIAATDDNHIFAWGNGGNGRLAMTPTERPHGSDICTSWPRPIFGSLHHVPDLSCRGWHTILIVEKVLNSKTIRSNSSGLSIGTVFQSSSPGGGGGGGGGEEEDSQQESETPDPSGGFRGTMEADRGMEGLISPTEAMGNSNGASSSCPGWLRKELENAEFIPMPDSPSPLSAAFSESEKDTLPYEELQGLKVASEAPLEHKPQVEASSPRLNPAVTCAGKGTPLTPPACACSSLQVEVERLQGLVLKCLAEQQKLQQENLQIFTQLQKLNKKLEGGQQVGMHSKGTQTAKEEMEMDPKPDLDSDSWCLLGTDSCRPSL
Method: as §1

HCK = target: T6, HCK (Homo sapiens, UniProt P08631); conditions: 35 at 1 µM; read-out: % inhibition
T6 construct: purchased Eurofins DiscoverX (KINOMEscan)
Method: as §1

MERTK = target: T7, MERTK (Homo sapiens, UniProt Q12866); conditions: 35 at 1 µM; read-out: % inhibition
T7 construct: purchased Eurofins DiscoverX (KINOMEscan)
Method: as §1

MYO3B = target: T8, MYO3B (Homo sapiens, UniProt Q8WXR4); conditions: 35 at 1 µM; read-out: % inhibition
T8 construct: purchased Eurofins DiscoverX (KINOMEscan)
Method: as §1

CDK3 = target: T9, CDK3 (Homo sapiens, UniProt Q00526); conditions: 35 at 1 µM; read-out: % inhibition
T9 construct: purchased Eurofins DiscoverX (KINOMEscan)
T9 sequence (Q00526 whole entry): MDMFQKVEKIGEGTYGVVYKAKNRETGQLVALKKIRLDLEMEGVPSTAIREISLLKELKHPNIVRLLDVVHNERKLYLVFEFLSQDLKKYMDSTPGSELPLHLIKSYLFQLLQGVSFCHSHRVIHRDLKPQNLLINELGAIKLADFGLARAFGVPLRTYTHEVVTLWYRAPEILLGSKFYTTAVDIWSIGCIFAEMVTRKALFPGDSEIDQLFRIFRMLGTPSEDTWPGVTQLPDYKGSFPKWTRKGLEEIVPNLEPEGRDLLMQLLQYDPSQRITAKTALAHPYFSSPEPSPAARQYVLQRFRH
Method: as §1

KIT = target: T10, KIT (Homo sapiens, UniProt P10721); conditions: 35 at 1 µM; read-out: % inhibition
T10 construct: purchased Eurofins DiscoverX (KINOMEscan)
Method: as §1

CSNK2A1 = target: T11, CSNK2A1 (Homo sapiens, UniProt P68400); conditions: 35 at 1 µM; read-out: % inhibition
T11 construct: purchased Eurofins DiscoverX (KINOMEscan)
Method: as §1

NDR2 = target: T12, NDR2 (Homo sapiens, UniProt Q9Y2H1); conditions: 35 at 1 µM; read-out: % inhibition
T12 construct: purchased Eurofins DiscoverX (KINOMEscan)
Method: as §1

[1] = target: T13, ABL1(T315I)-nonphosphorylated (Homo sapiens, UniProt P00519, T315I); conditions: 35 at 1 µM; read-out: % inhibition
T13 construct: purchased Eurofins DiscoverX (KINOMEscan)
Method: as §1

PAK7 = target: T14, PAK7 (Homo sapiens, UniProt Q9P286); conditions: 35 at 1 µM; read-out: % inhibition
T14 construct: purchased Eurofins DiscoverX (KINOMEscan)
Method: as §1

PAK4 = target: T15, PAK4 (Homo sapiens, UniProt O96013); conditions: 35 at 1 µM; read-out: % inhibition
T15 construct: purchased Eurofins DiscoverX (KINOMEscan)
Method: as §1

MST4 = target: T16, MST4 (Homo sapiens, UniProt Q9P289); conditions: 35 at 1 µM; read-out: % inhibition
T16 construct: purchased Eurofins DiscoverX (KINOMEscan)
Method: as §1

IGF1R = target: T17, IGF1R (Homo sapiens, UniProt P08069); conditions: 35 at 1 µM; read-out: % inhibition
T17 construct: purchased Eurofins DiscoverX (KINOMEscan)
Method: as §1

PIP5K1C = target: T18, PIP5K1C (Homo sapiens, UniProt O60331); conditions: 35 at 1 µM; read-out: % inhibition
T18 construct: purchased Eurofins DiscoverX (KINOMEscan)
Method: as §1

IRAK4 = target: T19, IRAK4 (Homo sapiens, UniProt Q9NWZ3); conditions: 35 at 1 µM; read-out: % inhibition
T19 construct: purchased Eurofins DiscoverX (KINOMEscan)
Method: as §1

IKK-epsilon = target: T20, IKK-epsilon (Homo sapiens, UniProt Q14164); conditions: 35 at 1 µM; read-out: % inhibition
T20 construct: purchased Eurofins DiscoverX (KINOMEscan)
Method: as §1

[2] = target: T21, ABL1(H396P)-phosphorylated (Homo sapiens, UniProt P00519, H396P); conditions: 35 at 1 µM; read-out: % inhibition
T21 construct: purchased Eurofins DiscoverX (KINOMEscan)
Method: as §1

PCTK2 = target: T22, PCTK2 (Homo sapiens, UniProt Q00537); conditions: 35 at 1 µM; read-out: % inhibition
T22 construct: purchased Eurofins DiscoverX (KINOMEscan)
Method: as §1

FLT4 = target: T23, FLT4 (Homo sapiens, UniProt P35916); conditions: 35 at 1 µM; read-out: % inhibition
T23 construct: purchased Eurofins DiscoverX (KINOMEscan)
T23 sequence (P35916 25-1363): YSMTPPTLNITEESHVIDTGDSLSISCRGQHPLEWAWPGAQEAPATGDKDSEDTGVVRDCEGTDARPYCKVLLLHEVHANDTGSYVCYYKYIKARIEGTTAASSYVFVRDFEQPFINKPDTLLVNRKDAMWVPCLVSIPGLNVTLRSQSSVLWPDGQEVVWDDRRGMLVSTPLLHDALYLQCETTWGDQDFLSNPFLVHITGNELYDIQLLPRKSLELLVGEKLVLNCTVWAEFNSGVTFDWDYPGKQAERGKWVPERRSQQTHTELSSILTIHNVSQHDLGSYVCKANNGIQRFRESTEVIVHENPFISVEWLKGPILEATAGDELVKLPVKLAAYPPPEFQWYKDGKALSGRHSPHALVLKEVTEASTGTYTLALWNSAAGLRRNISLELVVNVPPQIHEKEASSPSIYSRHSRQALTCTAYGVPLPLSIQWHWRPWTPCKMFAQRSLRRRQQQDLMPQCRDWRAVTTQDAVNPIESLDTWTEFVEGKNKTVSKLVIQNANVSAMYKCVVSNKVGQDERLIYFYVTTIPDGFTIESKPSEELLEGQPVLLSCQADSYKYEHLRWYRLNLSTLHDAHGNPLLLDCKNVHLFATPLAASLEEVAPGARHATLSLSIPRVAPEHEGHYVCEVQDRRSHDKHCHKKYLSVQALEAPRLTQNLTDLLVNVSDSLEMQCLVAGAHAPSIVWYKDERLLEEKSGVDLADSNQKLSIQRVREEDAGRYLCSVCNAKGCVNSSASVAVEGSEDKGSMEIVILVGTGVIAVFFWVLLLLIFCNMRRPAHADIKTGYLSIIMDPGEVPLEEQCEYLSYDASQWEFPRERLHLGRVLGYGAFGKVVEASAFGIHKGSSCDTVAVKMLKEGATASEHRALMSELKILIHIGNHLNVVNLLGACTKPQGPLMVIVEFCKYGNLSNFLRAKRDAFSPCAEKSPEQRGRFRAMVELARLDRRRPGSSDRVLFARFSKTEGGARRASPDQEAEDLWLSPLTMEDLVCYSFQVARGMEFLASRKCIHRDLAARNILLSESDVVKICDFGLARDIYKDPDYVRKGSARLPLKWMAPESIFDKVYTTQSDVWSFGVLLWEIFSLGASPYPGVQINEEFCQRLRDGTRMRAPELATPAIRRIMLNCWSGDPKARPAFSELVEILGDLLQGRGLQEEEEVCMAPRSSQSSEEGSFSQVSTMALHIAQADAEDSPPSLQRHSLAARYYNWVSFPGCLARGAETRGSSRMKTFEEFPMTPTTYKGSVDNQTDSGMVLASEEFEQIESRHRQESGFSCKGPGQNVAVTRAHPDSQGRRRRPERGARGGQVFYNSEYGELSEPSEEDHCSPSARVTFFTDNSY
Method: as §1

FGFR3(G697C) = target: T24, FGFR3(G697C) (Homo sapiens, UniProt P22607, G697C); conditions: 35 at 1 µM; read-out: % inhibition
T24 construct: purchased Eurofins DiscoverX (KINOMEscan)
T24 sequence (P22607 23-806 G697C): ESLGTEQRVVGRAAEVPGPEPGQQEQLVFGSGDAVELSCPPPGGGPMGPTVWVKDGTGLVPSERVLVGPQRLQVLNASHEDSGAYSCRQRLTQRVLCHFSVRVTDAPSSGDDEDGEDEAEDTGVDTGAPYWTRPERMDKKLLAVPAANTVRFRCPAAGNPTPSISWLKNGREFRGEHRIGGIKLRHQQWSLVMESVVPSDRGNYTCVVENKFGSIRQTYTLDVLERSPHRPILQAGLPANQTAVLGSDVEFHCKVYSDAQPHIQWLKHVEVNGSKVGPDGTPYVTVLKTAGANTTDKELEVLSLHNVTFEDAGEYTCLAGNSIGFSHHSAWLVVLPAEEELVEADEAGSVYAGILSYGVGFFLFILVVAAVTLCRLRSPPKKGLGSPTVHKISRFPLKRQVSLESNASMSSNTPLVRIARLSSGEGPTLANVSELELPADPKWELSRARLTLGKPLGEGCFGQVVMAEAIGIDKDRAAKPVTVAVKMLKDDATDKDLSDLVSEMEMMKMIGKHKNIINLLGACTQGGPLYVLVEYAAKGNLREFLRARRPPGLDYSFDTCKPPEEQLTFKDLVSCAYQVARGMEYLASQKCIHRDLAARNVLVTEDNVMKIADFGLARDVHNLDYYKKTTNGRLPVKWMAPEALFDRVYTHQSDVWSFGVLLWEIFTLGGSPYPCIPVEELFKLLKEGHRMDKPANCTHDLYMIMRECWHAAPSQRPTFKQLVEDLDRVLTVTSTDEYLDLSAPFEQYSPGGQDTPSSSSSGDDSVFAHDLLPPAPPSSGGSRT
Method: as §1

MKNK2 = target: T25, MKNK2 (Homo sapiens, UniProt Q9HBH9); conditions: 35 at 1 µM; read-out: % inhibition
T25 construct: purchased Eurofins DiscoverX (KINOMEscan)
T25 sequence (Q9HBH9 whole entry): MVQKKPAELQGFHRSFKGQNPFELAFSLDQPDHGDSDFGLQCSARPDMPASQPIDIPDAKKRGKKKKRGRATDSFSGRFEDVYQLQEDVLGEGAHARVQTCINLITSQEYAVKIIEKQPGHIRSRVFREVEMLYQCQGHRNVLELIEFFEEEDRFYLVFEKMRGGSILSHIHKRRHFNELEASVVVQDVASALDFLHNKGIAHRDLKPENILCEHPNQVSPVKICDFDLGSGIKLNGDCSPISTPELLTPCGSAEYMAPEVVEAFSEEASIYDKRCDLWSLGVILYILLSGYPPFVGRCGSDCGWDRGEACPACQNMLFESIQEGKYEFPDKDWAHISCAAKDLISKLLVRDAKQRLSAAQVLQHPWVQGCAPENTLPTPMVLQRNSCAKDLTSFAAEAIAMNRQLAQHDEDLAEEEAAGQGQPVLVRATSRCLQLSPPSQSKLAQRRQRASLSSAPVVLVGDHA
Method: as §1

PRKG2 = target: T26, PRKG2 (Homo sapiens, UniProt Q13237); conditions: 35 at 1 µM; read-out: % inhibition
T26 construct: purchased Eurofins DiscoverX (KINOMEscan)
Method: as §1

CHEK2 = target: T27, CHEK2 (Homo sapiens, UniProt O96017); conditions: 35 at 1 µM; read-out: % inhibition
T27 construct: purchased Eurofins DiscoverX (KINOMEscan)
Method: as §1

[3] = target: T28, ABL1(Q252H)-phosphorylated (Homo sapiens, UniProt P00519, Q252H); conditions: 35 at 1 µM; read-out: % inhibition
T28 construct: purchased Eurofins DiscoverX (KINOMEscan)
Method: as §1

NEK6 = target: T29, NEK6 (Homo sapiens, UniProt Q9HC98); conditions: 35 at 1 µM; read-out: % inhibition
T29 construct: purchased Eurofins DiscoverX (KINOMEscan)
Method: as §1

EGFR(E746-A750del) = target: T30, EGFR(E746-A750del) (Homo sapiens, UniProt P00533, DEL746-750); conditions: 35 at 1 µM; read-out: % inhibition
T30 construct: purchased Eurofins DiscoverX (KINOMEscan)
Method: as §1

[4] = target: T31, RSK2(Kin.Dom.1-N-terminal) (Homo sapiens, UniProt P51812); conditions: 35 at 1 µM; read-out: % inhibition
T31 construct: RSK2(Kin.Dom.1-N-terminal); purchased Eurofins DiscoverX (KINOMEscan)
Method: as §1

PKNB(M.tuberculosis) = target: T32, PKNB(M.tuberculosis) (Mycobacterium tuberculosis, UniProt P9WI81); conditions: 35 at 1 µM; read-out: % inhibition
T32 construct: purchased Eurofins DiscoverX (KINOMEscan)
Method: as §1

MUSK = target: T33, MUSK (Homo sapiens, UniProt O15146); conditions: 35 at 1 µM; read-out: % inhibition
T33 construct: purchased Eurofins DiscoverX (KINOMEscan)
Method: as §1

MEK1 = target: T34, MEK1 (Homo sapiens, UniProt Q02750); conditions: 35 at 1 µM; read-out: % inhibition
T34 construct: purchased Eurofins DiscoverX (KINOMEscan)
Method: as §1

PFCDPK1(P.falciparum) = target: T35, PFCDPK1(P.falciparum) (Plasmodium falciparum, UniProt P62344); conditions: read-out: % inhibition
T35 construct: purchased Eurofins DiscoverX (KINOMEscan)
Method: as §1

PRKR = target: T36, PRKR (Homo sapiens, UniProt P19525); conditions: 35 at 1 µM; read-out: % inhibition
T36 construct: purchased Eurofins DiscoverX (KINOMEscan)
Method: as §1

PLK3 = target: T37, PLK3 (Homo sapiens, UniProt Q9H4B4); conditions: 35 at 1 µM; read-out: % inhibition
T37 construct: purchased Eurofins DiscoverX (KINOMEscan)
Method: as §1

MARK3 = target: T38, MARK3 (Homo sapiens, UniProt P27448); conditions: 35 at 1 µM; read-out: % inhibition
T38 construct: purchased Eurofins DiscoverX (KINOMEscan)
Method: as §1

BMPR1B = target: T39, BMPR1B (Homo sapiens, UniProt O00238); conditions: 35 at 1 µM; read-out: % inhibition
T39 construct: purchased Eurofins DiscoverX (KINOMEscan)
Method: as §1

TGFBR1 = target: T40, TGFBR1 (Homo sapiens, UniProt P36897); conditions: 35 at 1 µM; read-out: % inhibition
T40 construct: purchased Eurofins DiscoverX (KINOMEscan)
Method: as §1

MEK2 = target: T41, MEK2 (Homo sapiens, UniProt P36507); conditions: 35 at 1 µM; read-out: % inhibition
T41 construct: purchased Eurofins DiscoverX (KINOMEscan)
T41 sequence (P36507 whole entry): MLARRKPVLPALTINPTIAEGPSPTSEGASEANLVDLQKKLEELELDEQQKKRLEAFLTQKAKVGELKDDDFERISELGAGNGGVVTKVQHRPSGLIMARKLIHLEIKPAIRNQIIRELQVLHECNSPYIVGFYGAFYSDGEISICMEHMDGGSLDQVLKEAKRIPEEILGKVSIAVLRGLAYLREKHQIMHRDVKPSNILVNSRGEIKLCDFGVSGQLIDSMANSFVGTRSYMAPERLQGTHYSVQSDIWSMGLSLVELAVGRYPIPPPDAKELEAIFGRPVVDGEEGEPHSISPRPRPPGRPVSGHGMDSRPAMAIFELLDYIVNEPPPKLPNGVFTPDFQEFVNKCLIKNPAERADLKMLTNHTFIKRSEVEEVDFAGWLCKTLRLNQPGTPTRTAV
Method: as §1

PRKCH = target: T42, PRKCH (Homo sapiens, UniProt P24723); conditions: 35 at 1 µM; read-out: % inhibition
T42 construct: purchased Eurofins DiscoverX (KINOMEscan)
T42 sequence (P24723 whole entry): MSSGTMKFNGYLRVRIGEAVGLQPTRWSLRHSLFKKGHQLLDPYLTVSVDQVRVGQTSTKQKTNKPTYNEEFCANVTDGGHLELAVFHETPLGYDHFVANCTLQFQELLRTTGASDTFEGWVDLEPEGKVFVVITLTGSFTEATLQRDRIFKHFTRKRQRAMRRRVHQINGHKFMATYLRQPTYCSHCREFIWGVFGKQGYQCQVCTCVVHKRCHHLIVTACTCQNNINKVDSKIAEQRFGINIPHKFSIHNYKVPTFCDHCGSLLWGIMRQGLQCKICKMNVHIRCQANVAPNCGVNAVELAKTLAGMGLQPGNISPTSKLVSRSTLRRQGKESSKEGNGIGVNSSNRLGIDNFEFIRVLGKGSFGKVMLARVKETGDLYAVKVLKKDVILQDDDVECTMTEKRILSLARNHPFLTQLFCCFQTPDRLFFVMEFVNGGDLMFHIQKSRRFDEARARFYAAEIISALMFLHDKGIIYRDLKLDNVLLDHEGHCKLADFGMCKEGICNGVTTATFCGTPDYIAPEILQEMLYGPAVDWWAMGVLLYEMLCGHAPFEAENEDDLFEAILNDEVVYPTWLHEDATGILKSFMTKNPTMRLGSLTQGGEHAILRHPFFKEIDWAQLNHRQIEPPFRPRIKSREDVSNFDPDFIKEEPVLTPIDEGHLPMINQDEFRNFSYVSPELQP
Method: as §1

Question: For `Brc1ccc2nccc(Nc3ccc4cn[nH]c4c3)c2c1` [Compound 35, 6-Bromo-N-(1H-indazol-6-yl)quinolin-4-amine], which activity at 1 µM (FLT3(N841I)) is on record?
Answer: 90%

Question: What about the activity at 1 µM (LIMK1) of the same compound?
Answer: 100%

Question: What about the activity at 1 µM (CLK1) of the same compound?
Answer: 100%

Question: And the activity at 1 µM (PRKCQ)?
Answer: 88%

Question: What about the activity at 1 µM (NEK9) of the same compound?
Answer: 100%

Question: What about the activity at 1 µM (HCK) of the same compound?
Answer: 100%

Question: And the activity at 1 µM (MERTK)?
Answer: 85%

Question: What about the activity at 1 µM (MYO3B) of the same compound?
Answer: 100%

Question: And the activity at 1 µM (CDK3)?
Answer: 96%

Question: What about the activity at 1 µM (KIT) of the same compound?
Answer: 100%

Question: And the activity at 1 µM (CSNK2A1)?
Answer: 100%

Question: What about the activity at 1 µM (NDR2) of the same compound?
Answer: 89%

Question: And the activity at 1 µM [1]?
Answer: 100%

Question: And the activity at 1 µM (PAK7)?
Answer: 100%

Question: And the activity at 1 µM (PAK4)?
Answer: 100%

Question: And the activity at 1 µM (MST4)?
Answer: 100%

Question: And the activity at 1 µM (IGF1R)?
Answer: 100%

Question: And the activity at 1 µM (PIP5K1C)?
Answer: 95%

Question: What about the activity at 1 µM (IRAK4) of the same compound?
Answer: 100%

Question: What about the activity at 1 µM (IKK-epsilon) of the same compound?
Answer: 95%

Question: And the activity at 1 µM [2]?
Answer: 100%

Question: What about the activity at 1 µM (PCTK2) of the same compound?
Answer: 100%

Question: What about the activity at 1 µM (FLT4) of the same compound?
Answer: 100%

Question: And the activity at 1 µM (FGFR3(G697C))?
Answer: 100%

Question: What about the activity at 1 µM (MKNK2) of the same compound?
Answer: 63%

Question: And the activity at 1 µM (PRKG2)?
Answer: 100%

Question: What about the activity at 1 µM (CHEK2) of the same compound?
Answer: 65%

Question: What about the activity at 1 µM [3] of the same compound?
Answer: 100%

Question: And the activity at 1 µM (NEK6)?
Answer: 100%

Question: What about the activity at 1 µM (EGFR(E746-A750del)) of the same compound?
Answer: 79%

Question: And the activity at 1 µM [4]?
Answer: 90%

Question: What about the activity at 1 µM (PKNB(M.tuberculosis)) of the same compound?
Answer: 77%

Question: What about the activity at 1 µM (MUSK) of the same compound?
Answer: 100%

Question: And the activity at 1 µM (MEK1)?
Answer: 71%

Question: And the activity at 1 µM (PFCDPK1(P.falciparum))?
Answer: 63%

Question: What about the activity at 1 µM (PRKR) of the same compound?
Answer: 100%

Question: And the activity at 1 µM (PLK3)?
Answer: 100%

Question: And the activity at 1 µM (MARK3)?
Answer: 100%

Question: What about the activity at 1 µM (BMPR1B) of the same compound?
Answer: 91%

Question: What about the activity at 1 µM (TGFBR1) of the same compound?
Answer: 100%

Question: And the activity at 1 µM (MEK2)?
Answer: 50%

Question: And the activity at 1 µM (PRKCH)?
Answer: 100%

Source: article PMC6891286, “Towards the Development of an In vivo Chemical Probe for Cyclin G Associated Kinase (GAK)” (Molecules, 2019)
